What was measured:
[1] = Passage of orally administered free calcitonin across the intestinal barrier; assay type: in vivo; conditions: 330 IU administered orally
Description: It is explained by the fact that during a massive administration of peptide such as calcitonin, a small percentage crosses the intestinal barrier (1%) without being denatured. In this case, 330 IU were administered, which corresponds to a lymphatic passage of 3.3 IU (passage from the intestinal lumen into the plasma, via the lymphatic canal pathway). However, the IV-route effect of calcitonin starts at 0.9 IU. It is thus normal to observe this effect of free calcitonin. The hypocalcaemia observed after oral administration of calcitonin decreases over time to return to the normal level after 90 min.

[2] = massive oral administration of peptide; cited from earlier work

## CC(C)C[C@H](NC(=O)[C@H](CCCCN)NC(=O)CNC(=O)[C@H](CC(C)C)NC(=O)[C@@H](NC(=O)[C@@H]1CSSC[C@H](N)C(=O)N[C@@H](CO)C(=O)N[C@@H](CC(N)=O)C(=O)N[C@@H](CC(C)C)C(=O)N[C@@H](CO)C(=O)N[C@@H]([C@@H](C)O)C(=O)N1)C(C)C)C(=O)N[C@@H](CO)C(=O)N[C@@H](CCC(N)=O)C(=O)N[C@@H](CCC(=O)O)C(=O)N[C@@H](CC(C)C)C(=O)N[C@@H](Cc1c[nH]cn1)C(=O)N[C@@H](CCCCN)C(=O)N[C@@H](CC(C)C)C(=O)N[C@@H](CCC(N)=O)C(=O)N[C@H](C(=O)N[C@@H](Cc1ccc(O)cc1)C(=O)N1CCC[C@H]1C(=O)N[C@@H](CCCNC(=N)N)C(=O)N[C@H](C(=O)N[C@@H](CC(N)=O)C(=O)N[C@H](C(=O)NCC(=O)N[C@@H](CO)C(=O)NCC(=O)N[C@H](C(=O)N1CCC[C@H]1C(N)=O)[C@@H](C)O)[C@@H](C)O)[C@@H](C)O)[C@@H](C)O [free calcitonin, salmon calcitonin]
[1]
  lymphatic passage (intestinal lumen into plasma via lymphatic canal pathway): 3.3 IU
[2]
  percentage crossing the intestinal barrier without being denatured: 1%
